The subject of assay [1] is murine BMDCs / CD4+ T‐cell hybridoma cells specific for epitope Thr142‐Ala153. The assay is described as follows: T-cell proliferation assay: Bet v 1 epitope presentation by BMDCs to CD4+ T-cell hybridomas (IL-2). Type of assay: cell-based, mouse. The following applies: Bet v 1 10 µg/mL with 10-fold molar excess of ligand; 16, 24, 32, 48 h. The method, then:
(§1) The ability of ligand‐loaded Bet_v_1 to induce IgE‐antigen cross‐linking and basophil degranulation was assessed by mediator‐release assays using rat basophil (RBL‐2H3) cells, transfected with the human high‐affinity IgE receptor (FcεRI), as previously described.2, 24 In vitro uptake of labeled Bet_v_1 was performed using CD11c^+ murine bone marrow–derived dendritic cells (BMDCs). The maturation of human monocyte‐derived dendritic cells (moDCs) was analyzed as previously described.2 T‐cell proliferation assays using CD4^+ T‐cell hybridomas were performed as previously described.17 A detailed description of the in vitro assays is available (Appendix [Link], [Link]).
In order to test the relevance of the identified Bet_v_1 ligands in processing and presentation by DCs in a time‐dependent manner, we incubated BMDCs with Bet_v_1 in complex with different ligands and detected the presentation of Bet_v_1 by using CD4^+ T‐cell hybridoma cells specific for the immune‐dominant T‐cell epitope (Thr142‐Ala153). T‐cell proliferation was monitored indirectly by IL‐2 secretion (Figure 5).
Bet v 1 was incubated over night with a 10-fold molar excess of either Q3OS, PPB1, PPE1, or DOC before incubation with murine BMDCs at a concentration of 10 μg/mL in BMDC medium (online supporting information). After 16, 24, 32, and 48h, DCs were washed and CD4^+ T-cell hybridomas specific for the immune-dominant epitope 142-153 of Bet v 1 were added to the culture at a ratio of 1:10 (DC:T-cell) for 24h^17. Supernatants were harvested and IL-2 levels were determined by ELISA (Invitrogen, Thermo Fisher Scientific, Waltham, MA, USA). As a reference, BMDCs were pulsed at each time point with different concentrations of peptide 142-153 and co-cultured with CD4^+ T-cell hybridomas. By interpolating in a standard curve, a µM peptide equivalent from the measured IL-2 was calculated from DCs pulsed with different peptide concentrations. The assays were carried out in triplicates.

Assay [2] addresses T1, Bet v 1 / human cathepsin S (Betula pendula, UniProt P15494).
T1 construct: made in house
T1 sequence (P15494 2-160 limits assumed): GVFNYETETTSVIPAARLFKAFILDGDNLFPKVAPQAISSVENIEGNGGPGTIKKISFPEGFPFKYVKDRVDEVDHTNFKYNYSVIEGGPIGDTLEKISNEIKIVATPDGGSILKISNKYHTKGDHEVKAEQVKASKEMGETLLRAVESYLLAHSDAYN
The assay is described as follows: Bet v 1 in vitro proteolytic degradation assay with cathepsin S. The following applies: for processing (degradation) of Bet v 1 by cathepsin S: Bet v 1 20 µM, ligand 100 µM, cathepsin S 1 µM, pH 5.0, 0-24 h, SDS-PAGE. Type of assay: biochemical. The method, then: (§2) The endolysosomal degradation assay was performed with ligand‐bound (either DOC, PPE1, or Q3OS in 10× molar excess) and Bet_v_1 without ligands (apo‐Bet_v_1) as previously described.21 Recombinant human cathepsin S and human legumain were used in proteolytic degradation assays. Experimental details are described in the Appendix [Link], [Link].
(§3) Recombinant human cathepsin S and human legumain were heterologously expressed and purified as described previously.^9,10 Bet v 1 (20 µM) was incubated with ligand (100 µM) in digestion buffer (0.1 M sodium acetate, pH 5.0, 0.1 M sodium chloride, 5 mM EDTA, and 2 mM DTT) at room temperature prior to the addition of cathepsin S (1 µM) or legumain (2 µM). […] At each time point, the reaction was halted by the addition of E64 (for cathepsin S) or YVAD-CMK (for legumain) at a final concentration of 50 µM, and analyzed by SDS-PAGE. Control reactions without the addition of protease were performed. The generated peptides were analyzed using mass spectrometry.

Assay [3] relates to CD11c+ murine bone marrow–derived dendritic cells (BMDCs). The assay is described as follows: In vitro antigen uptake of labeled Bet v 1 by BMDCs. Type of assay: cell-based, mouse. As to conditions: Bet v 1 with or without ligand; 1, 6, 24 h; FACS. Here is the method: as §1
BMDCs from C57BL/6 mouse bone marrow were isolated as described previously.^5 cultured in BMDC medium (RPMI 1640, 5% fetal calf serum, 2 mM L-glutamine, 1% penicillin-streptomycin, 20% granulocyte-macrophage colony-stimulating factor supernatant and 200 µM β-mercaptoethanol) (BMDC medium) for 10 days, and stored frozen in liquid nitrogen. BMDCs were treated over a certain period of time (24, 6 or 1 hours) with 0.5 µg of Bet v 1 per 2x10^5 cells. Bet v 1 was labeled with pHrodo™ Red succinimidyl ester (Thermo Fisher Scientific, Waltham, MA, USA) and pre-incubated with one of the ligands (DOC, Q3OS or PPE1). CD11c^+ cells were analyzed via flow cytometry (allophycocyanin-conjugated anti-mouse CD11c antibody, clone N418; eBioscience, Inc., San Diego, CA, USA) on a FACSCanto II instrument (BD Biosciences, San Jose, CA, USA). For the live/dead staining a fixable viability stain 450 (BD Biosciences) was used. Granulocytes and monocytes were excluded via the V450 Rat anti-Mouse LY-6G and LY-6C (BD Biosciences) antibody. Data were recorded and analyzed using the BD FACSDiva software (BD Biosciences). Statistical analysis was performed using ANOVA with a Bonferroni post-test to compare all groups. The data represent the mean of duplicate experiments and are derived from at least 2 independent experiments.

The target of assay [4] is T2, Bet v 1 / human legumain (Betula pendula, UniProt P15494).
T2 construct: made in house
T2 sequence (P15494 2-160 limits assumed): T1 sequence (P15494 2-160 limits assumed)
The assay is described as follows: Bet v 1 in vitro proteolytic degradation assay with legumain. Type of assay: biochemical. The method, then: as §2, §3

Setting [5] is: relative abundance of peptides by mass spectrometry.

SMILES strings stand for the structures. “Also recorded” adds a separate entry of the source.

`CCC1C(=O)CC(O)C1/C=C/C(O)CCCCCCCC(=O)O` (centres unmarked) [PPE1, E1 phytoprostanes]: the “MHCII presentation of Bet v 1 epitope (Thr142‐Ala153) on DCs, IL‐2 secretion” value (shortened to “MHCII presentation of Bet v 1 epitope”) in assay [1] was “consistently affected the MHCII presentation; also recorded: unique reduction in the presentation of the T‐cell epitopes”. In assay [2], the “processing (degradation) of Bet v 1 by cathepsin S” value is on record as “strongly retarded”. For the same compound, the “Bet v 1 cleavage site frequency with cathepsin S” value in assay [2] (setting [5]) is “preferential cleavage was observed after Phe20, Lys21, and in the C‐terminal region”. Also, the “antigen uptake of pHrodo Red‐labeled Bet v 1” value (“antigen uptake” for short) in assay [3] is given as “None of the above described readouts was influenced”. The “Bet v 1 cleavage site frequency with legumain” value in assay [4] (setting [5]) is “cleavage frequency after Asn120 and Asp157 strongly increased”.
In the case of `C[C@H](CCC(=O)O)[C@H]1CC[C@H]2[C@@H]3CC[C@@H]4C[C@H](O)CC[C@]4(C)[C@H]3C[C@H](O)[C@]12C` [DOC, sodium deoxycholate, reference compound], in assay [1], the “MHCII presentation of Bet v 1 epitope” value was “affected only after 48 hours”. In assay [2], the “processing (degradation) of Bet v 1 by cathepsin S” value is on record as “strongly retarded”. Further, in assay [3], the “antigen uptake” value is reported as “None of the above described readouts was influenced”. For the same compound, in assay [4] (Bet v 1 20 µM, ligand 100 µM, legumain 2 µM, pH 5.0, 0-24 h, SDS-PAGE), the “processing (degradation) of Bet v 1 by legumain” value is given as “strongly retarded”.
For the compound `O=c1c(O[C@@H]2O[C@H](CO)[C@@H](O)[C@H](O)[C@H]2O[C@@H]2O[C@H](CO)[C@@H](O)[C@H](O)[C@H]2O)c(-c2ccc(O)c(O)c2)oc2cc(O)cc(O)c12` [Q3OS, quercetin 3‐O‐sophoroside], the “MHCII presentation of Bet v 1 epitope” value in assay [1] is reported as “did not affect the presentation”. Also, the “antigen uptake” value in assay [3] is recorded as “None of the above described readouts was influenced”.

The values are drawn from PMC6910946, “Multiple roles of Bet v 1 ligands in allergen stabilization and modulation of endosomal protease activity” (Allergy, 2019).
